The test system of assay [1] is MCF-7 human breast cancer cells. The experiment in a line: Annexin V-FITC flow cytometry for apoptotic cells, MCF7. The assay is classed as cell-based. The settings on record: 24 hrs, 0 μM to 200 μM. The protocol: SW480 human colon cancer cells and MCF7 breast cancer cells were grown following the instructions of American Type Culture Collection (ATCC, Monassas, Va.). The cells were treated with the test peptides (YJB01, YJB05, or YJB06) for 24 hrs at concentrations ranging from 0 μM, to 200 μM. After treatment, cells were trypsinized and stained with Annexin V-FITC (100× dilution) for 15 minutes. Annexin V-FITC fluorescence intensities were analyzed by FACSCaliber (BD Bioscience) following standard protocols. Annexin V (+) cells are apoptotic cells.
When cells undergo apoptosis, the inner membrane phospholipid, phosphotidylserine (PS), flips to the outer membrane and can be recognized by the […]. The green FITC fluorescence can be determined by flow cytometry and thus Annexin V (+) cells are apoptotic cells.
In this study, SW480 human cancer cells and MCF7 breast cancer cells were grown following the instructions of American Type Culture Collection (ATCC, Monassas, Va.). The cells were treated with the test peptides (YJB01, YJB05, or YJB06) for 24 hrs at concentrations ranging from 0 μM, to 200 μM. After treatment cells were trypsinized and stained with Annexin V-FITC (100× dilution) for 15 minutes. Annexin V-FITC fluorescence intensities were analyzed by FACSCaliber (BD Bioscience) following standard protocols.

The test system of assay [2] is peroxiredoxin 1. Put plainly: Oxidized peroxiredoxin 1 (Prx-O3) immunoblot in SW480 cells. Type of assay: cell-based, human. The following applies: 1 h, YJB01 20 μM and 100 μM, YJB05 100 μM. How it is done:
The oxidized peroxiredoxin 1 (sulphonic-peroxiredoxin, Prx-O3) was detected by using the specific anti-Prx-O3 antibody. Briefly, after SW480 cells were treated with either no peptide, with YBJ01 (at 20 μM and 100 μM), or with YJB05 (at 100 μM) for 1 h, total cell lysates were collected and separated on the SDS-PAGE gel. The gel was electroblotted onto a nitrocellulose membrane and probed with anti-Prx-O3, followed by HRP-conjugated secondary antibody. Bands corresponding to sulphonic-peroxiredoxin were visualized by ECL
The oxidized peroxiredoxin 1 (sulphonic-peroxiredoxin, Prx-O3) was detected by using the specific anti-Prx-O3 antibody Briefly, after SW480 cells were treated with either no peptide, with YBJ01 (at 20 μM and 100 μM), or with YBJ05 (at 100 μM) for 1 h, total cell lysates were collected and separated on the SDS-PAGE gel. The gel was electroblotted onto a nitrocellulose membrane and probed with anti-Prx-O3, followed by HRP-conjugated secondary antibody. Bands corresponding to sulphonic-peroxiredoxin were visualized by ECL

Entries after “also recorded” stand apart in the source; their conditions may differ. Positions of bridges follow the written chain, without caps; N, C: chain ends. Residues, ends and D or L forms follow the SMILES beside them.

Take `CC[C@H](C)[C@H](NC(=O)[C@H](CCCCN)NC(=O)[C@@H](NC(=O)[C@H](CCC(N)=O)NC(=O)[C@H](CCCNC(=N)N)NC(=O)[C@@H]1CCCN1C(=O)[C@H](CCCCN)NC(=O)[C@@H]1CSSC[C@H](NC(=O)[C@H](Cc2c[nH]c3ccccc23)NC(=O)[C@@H](NC(=O)[C@H](C)N)[C@@H](C)O)C(=O)NCC(=O)N2CCC[C@H]2C(=O)N1)[C@@H](C)CC)C(=O)N[C@@H](Cc1c[nH]c2ccccc12)C(=O)N[C@@H](Cc1ccccc1)C(=O)N[C@@H](CCC(N)=O)C(=O)N[C@@H](CC(N)=O)C(=O)N[C@@H](CCCNC(=N)N)C(=O)N[C@@H](CCCNC(=N)N)C(=O)N[C@@H](CCSC)C(=O)N[C@@H](CCCCN)C(=O)N[C@@H](Cc1c[nH]c2ccccc12)C(=O)N[C@@H](CCCCN)C(=O)N[C@@H](CCCCN)C(=O)O` [YJB01] (H-ATWCGPCKPRQIKIWFQNRRMKWKK-OH; disulfide 4-7; N-terminus and C-terminus assumed): in assay [1], the “apoptosis, Annexin V (+) cells, MCF7” value is listed as “cell killing effect”. In addition, the “induction of the oxidized form of peroxiredoxin 1” value in assay [2] is listed as “induced the oxidized form of peroxiredoxin; also recorded: capable of inducing oxidation”.
